Experimental data: patent publication US8378104B2 (OSI Pharmaceuticals, LLC, priority 2010, dated 2013)
Read-outs that look alike come from different tables or passages of the source.

Experiments:
[1] = tested on: p-p38 in HCT-116 cells; test: Phospho-p38 Meso Scale ELISA assay, TNFα-stimulated HCT-116 cells; type: cell-based; details: Homo sapiens, read-out: mean HCT-116 p-p38 ELISA IC50 (Col. C)
Procedure, shortened: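 HCT-116 cells in 1% FCS medium for 2 h, then compound for 4 h at 37° C, then TNFα at 10 ng/mL final for 10 min. Lysates captured overnight at 4° C and phospho-p38 quantified by Meso Scale electrochemiluminescence ELISA.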

[2] = biological target: T1, TAK1-TAB1 fusion protein (Homo sapiens, UniProt O43318); test: TAK1 biochemical assay (AlphaScreen, GST-MAP2K7 substrate)
T1 construct: purchased Carna
T1 sequence (O43318 with tags, fused parts or gaps limits assumed): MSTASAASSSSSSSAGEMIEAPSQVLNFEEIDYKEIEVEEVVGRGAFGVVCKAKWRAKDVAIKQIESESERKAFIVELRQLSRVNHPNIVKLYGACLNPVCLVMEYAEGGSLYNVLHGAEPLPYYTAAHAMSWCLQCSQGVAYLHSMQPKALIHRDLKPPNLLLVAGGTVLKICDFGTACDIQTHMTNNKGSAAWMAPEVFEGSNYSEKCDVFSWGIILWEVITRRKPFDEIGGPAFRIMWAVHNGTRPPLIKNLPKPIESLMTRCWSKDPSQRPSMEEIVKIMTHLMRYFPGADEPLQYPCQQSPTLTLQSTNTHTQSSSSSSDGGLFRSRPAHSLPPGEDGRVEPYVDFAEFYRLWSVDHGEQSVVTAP

[3] = tested on: pJNK in HCT-116 cells; test: Phospho-JNK (Thr183/Tyr185) Meso Scale ELISA assay, TNFα-stimulated HCT-116 cells; type: cell-based; details: Homo sapiens, read-out: mean HCT-116 pJNK ELISA IC50 (Col. B)
Procedure, shortened: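 HCT-116 cells in 1% FCS medium were pretreated with compound for 4 hrs at 37° C, then stimulated with TNFα at 10 ng/mL final for 10 minutes. Lysates were taken in ice-cold lysis buffer with phosphatase and protease inhibitors, and phospho-JNK (Thr183/Tyr185) was measured by Meso Scale ELISA.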

[4] = TAK1-TAB1 fusion protein, GST-MAP2K7 substrate, read-out: mean TAK1 IC50 (Col. A)

IC50 [1]	IC50 [2, 4]	IC50 [3]	IC50 [2]	SMILES
100 to 1000 nM	100 to 1000 nM	100 to 1000 nM		Nc1ncc(-c2cnn(C3CC(=O)C3)c2)c2cc(-c3csc4cnccc34)oc12 [Example 315, 3-[4-(7-amino-2-thieno[2,3-c]pyridin-3-yl-furo[2,3-c]pyridin-4-yl)-pyrazol-1-yl]-cyclobutanone]
100 to 1000 nM	< 100 nM	100 to 1000 nM		CC(=O)N1CC(n2cc(-c3cnc(N)c4oc(-c5csc6cnccc56)cc34)cn2)C1 [Example 316, 1-{3-[4-(7-amino-2-thieno[2,3-c]pyridin-3-yl-furo[2,3-c]pyridin-4-yl)-pyrazol-1-yl]-azetidin-1-yl}-ethanone]
1000 to 10000 nM	< 100 nM	1000 to 10000 nM		Nc1ncc(-c2cnn(C[C@@H](O)CO)c2)c2cc(-c3csc4cnccc34)oc12 [Example 317, (R)-3-[4-(7-amino-2-thieno[2,3-c]pyridin-3-yl-furo[2,3-c]pyridin-4-yl)-pyrazol-1-yl]-propane-1,2-diol]
100 to 1000 nM	< 100 nM	100 to 1000 nM		Nc1ncc(-c2cnn(C3CCNCC3)c2)c2cc(-c3csc4cnccc34)oc12 [Example 322, 4-(1-piperidin-4-yl-1H-pyrazol-4-yl)-2-thieno[2,3-c]pyridin-3-yl-furo[2,3-c]pyridin-7-ylamine]
100 to 1000 nM	< 100 nM	1000 to 10000 nM		Nc1ncc(-c2cnn(C3CCNCC3)c2)c2cc(-c3cccc4cnsc34)oc12 [Example 323, 2-benzo[d]isothiazol-7-yl-4-(1-piperidin-4-yl-1H-pyrazol-4-yl)-furo[2,3-c]pyridin-7-ylamine]
1000 to 10000 nM	1000 to 10000 nM	100 to 1000 nM		Nc1ncc(-c2cc[nH]c2)c2cc(-c3csc4cnccc34)oc12 [Example 376, 4-(1H-pyrrol-3-yl)-2-thieno[2,3-c]pyridin-3-yl-furo[2,3-c]pyridin-7-ylamine]
1000 to 10000 nM	> 10000 nM	1000 to 10000 nM		Cc1nn(CC(O)CO)c(C)c1-c1cnc(N)c2oc(-c3cccc4cnccc34)cc12 (stereo not drawn) [Example 400, 3-{4-[7-amino-2-(isoquinolin-5-yl)furo[2,3-c]pyridin-4-yl]-3,5-dimethyl-1H-pyrazol-1-yl}propane-1,2-diol]
1000 to 10000 nM	100 to 1000 nM	100 to 1000 nM		Nc1ncc(-c2cnn([C@H]3CC[C@H](O)CC3)c2)c2cc(-c3ccc4[nH]ncc4c3)oc12 [Example 402, trans-4-{4-[7-amino-2-(1H-indazol-5-yl)furo[2,3-c]pyridin-4-yl]-1H-pyrazol-1-yl}cyclohexanol]
1000 to 10000 nM	100 to 1000 nM	100 to 1000 nM		CC(=O)N1CCC(n2cc(-c3cnc(N)c4oc(-c5ccccc5C)cc34)cn2)CC1 [Example 410, 1-(4-{4-[7-amino-2-(2-methylphenyl)furo[2,3-c]pyridin-4-yl]-1H-pyrazol-1-yl}piperidin-1-yl)ethanone]

The next lines start with the molecule.

SMILES	IC50 [1]	IC50 [2, 4]	IC50 [3]	IC50 [2]
Cc1nn(CC(C)(C)O)cc1-c1cnc(N)c2oc(-c3csc4cnccc34)cc12 [Example 289, 1-[4-(7-amino-2-thieno[2,3-c]pyridin-3-yl-furo[2,3-c]pyridin-4-yl)-3-methyl-pyrazol-1-yl]-2-methyl-propan-2-ol]	1000 to 10000 nM	1000 to 10000 nM	100 to 1000 nM	
Cn1cc(-c2cnc(N)c3oc(-c4csc5cnccc45)cc23)cn1 [Example 290, 4-(1-methyl-1H-pyrazol-4-yl)-2-thieno[2,3-c]pyridin-3-yl-furo[2,3-c]pyridin-7-ylamine]	100 to 1000 nM		100 to 1000 nM	100 to 1000 nM
Nc1ncc(-c2cnn(C3CC4(C3)OCCO4)c2)c2cc(-c3csc4cnccc34)oc12 [Example 291, 4-[1-(5,8-dioxa-spiro[3.4]oct-2-yl)-1H-pyrazol-4-yl]-2-thieno[2,3-c]pyridin-3-yl-furo[2,3-c]pyridin-7-ylamine]	100 to 1000 nM	< 100 nM	100 to 1000 nM	
Cc1nn(C)cc1-c1cnc(N)c2oc(-c3csc4cnccc34)cc12 [Example 293, 4-(1,3-dimethyl-1H-pyrazol-4-yl)-2-thieno[2,3-c]pyridin-3-yl-furo[2,3-c]pyridin-7-ylamine]	1000 to 10000 nM		100 to 1000 nM	1000 to 10000 nM
CC1(C)OC[C@@H](Cn2cc(-c3cnc(N)c4oc(-c5csc6cnccc56)cc34)cn2)O1 [Example 297, 4-[1-((R)-2,2-dimethyl-[1,3]dioxolan-4-ylmethyl)-1H-pyrazol-4-yl]-2-thieno[2,3-c]pyridin-3-yl-furo[2,3-c]pyridin-7-ylamine]	1000 to 10000 nM	100 to 1000 nM	100 to 1000 nM	
CC(C)(C)OC(=O)N1CCC(n2cc(-c3cnc(N)c4oc(-c5csc6cnccc56)cc34)cn2)CC1 [Example 300, 4-[4-(7-amino-2-thieno[2,3-c]pyridin-3-yl-furo[2,3-c]pyridin-4-yl)-pyrazol-1-yl]piperidine-1-carboxylic acid tert-butyl ester]	100 to 1000 nM	100 to 1000 nM	100 to 1000 nM	
CC(C)(C)OC(=O)N1CCC(n2cc(-c3cnc(N)c4oc(-c5cccc6cnsc56)cc34)cn2)CC1 [Example 302, 4-[4-(7-amino-2-benzo[d]isothiazol-7-yl-furo[2,3-c]pyridin-4-yl)-pyrazol-1-yl]-piperidine-1-carboxylic acid tert-butyl ester]	1000 to 10000 nM	100 to 1000 nM	100 to 1000 nM	
COc1nn([C@H]2CC[C@@H](O)CC2)cc1-c1cnc(N)c2oc(-c3csc4cnccc34)cc12 [Example 303, 4-[4-(7-amino-2-thieno[2,3-c]pyridin-3-yl-furo[2,3-c]pyridin-4-yl)-3-methoxy-pyrazol-1-yl]-cyclohexanol]	1000 to 10000 nM	100 to 1000 nM	100 to 1000 nM	
Nc1ncc(-c2cnn([C@@H]3C[C@@H](O)[C@@H](O)C3)c2)c2cc(-c3csc4cnccc34)oc12 [Example 311, rel-(1R,2S,4S)-4-[4-(7-amino-2-thieno[2,3-c]pyridin-3-yl-furo[2,3-c]pyridin-4-yl)-pyrazol-1-yl]-cyclopentane-1,2-diol]	100 to 1000 nM	< 100 nM	100 to 1000 nM	
Nc1ncc(-c2cnn(C3CNC3)c2)c2cc(-c3csc4cnccc34)oc12 [Example 314, 4-(1-azetidin-3-yl-1H-pyrazol-4-yl)-2-thieno[2,3-c]pyridin-3-yl-furo[2,3-c]pyridin-7-ylamine]	100 to 1000 nM	< 100 nM	1000 to 10000 nM	
